Results published in US20260234173A1, “STRUCTURED MOLECULAR VECTORS FOR ANTI-INFLAMMATORY COMPOUNDS AND USES THEREOF” (Universite Claude Bernard Lyon 1, priority 2019, published 2026).

What was measured:
[1] = Recovery of weight loss in rats after status epilepticus; type: in vivo, rat; conditions: 10 mg/Kg i.p. every day for 7 days after Pilo-SE
Procedure: Rats were subjected to pilocarpine-induced status epilepticus at day 0) and were administered (10 mg/Kg, i.p) Synaptamide phosphonate (SynPn) every day for 7 days. The weight of animals was daily measured. Results are described in FIG. 20. Results are expressed as the percentage of weight of animals (10-15 animals/group) at day 0. Statistical differences between Controls/SE+NaCl (*: p<0.05, ***: p<0.001) and between SE+NaCl/SE+SynPn (#: p<0.05).

[2] = system: immortalized human microglia (IHM); assay: Expression of inflammation markers in immortalized human microglia activated by IL-1β (RT-qPCR); type: cell-based; conditions: pre-treated with 150 nM and 300 nM 3 hours before IL-1β (3 ng/mL); RNA after 5 hours
Procedure: Immortalized human microglia (IHM; Innoprot, Derio, Spain) were seeded at 13,000 cells/cm^2 in T75 flasks coated with type I human collagen (10 μL/mL, Coating Matrix Kit, Innoprot). The medium was formulated for optimal growth of human brain-derived microglia in vitro, and contained 1% pen/strep, 1% of microglia growth supplement and 5% fetal bovine serum (Microglial Cell Medium Kit, Innoprot).
IHM were seeded (10,000 cells/cm^2) in type 1 collagen-coated 6-well plates. When cell culture was about 80% confluent, IL-1β (R&D Systems) was added to the culture medium at 0.5 ng/mL, 1.5 ng/mL or 3.0 ng/mL. At t=0, each well received 1 mL of medium only (controls) or 1 mL of medium containing the desired concentration of IL-1β. Cells were harvested at t=0 h, t=3 h, t=8 h and t=24 h. Each tested condition was repeated as triplicates.
The effect of synaptamide phosphonate has been tested as illustrated in FIG. 5. […]
PCR amplification of targeted cDNAs was performed using the Rotor-Gene Q system (Qiagen) and the QuantiTect SYBR Green PCR Kit (Qiagen).
The ScDNA copy number measured after qPCR was used to estimate the RT step yield for each sample, taking into account that the same number of SmRNA copies was initially present in all samples before RT step. This yield made it possible to standardize the values obtained for all the genes of interest measured from the same sample. […]

[3] = system: epileptic rats (post Pilo-SE); assay: Morris water maze (MWM) spatial learning in epileptic rats; type: in vivo, rat; conditions: epileptic rats injected during the first week post-SE, tested 5 weeks post-SE, versus saline
Procedure: All injected solutions were prepared in sterile saline (0.9% w/v). At weaning (postnatal day 20 (P20)), Sprague-Dawley male rat pups were first injected i.p. with lithium chloride (127 mg/Kg; Sigma-Aldrich), to decrease the dose of pilocarpine needed to trigger Status Epilepticus (SE). Scopolamine methylnitrate (1 mg/Kg; Sigma-Aldrich) was injected s.c. 18 h later, to alleviate peripheral cholinergic adverse side effects. Pilocarpine hydrochloride (25 mg/Kg; Sigma-Aldrich) was injected i.p. 30 min later, to induce SE. After 30 min of continuous behavioral SE, diazepam (Valium®, Roche) was injected i.p. at 10 mg/Kg, to promote survival and initiate cessation of behavioral seizures, that completely stopped after a second s.c. injection of diazepam, given 90 min later at the dose of 5 mg/Kg. The rats were placed on a heated pad, under continuous observation, until they recovered from sedation. Following recovery, the rats were returned to the nursing mother until P23. Control rats only received saline injections. […]
Spatial learning ability was measured at 5 weeks post-SE by the Morris water maze (MWM). […]
The statistical analyses were performed using SigmaPlot software version 12. […] For MWM test, data were analyzed by two-way repeated measures ANOVA followed by Fisher LSD post hoc tests to compare differences between groups at several time points.

## CCC=CCC=CCC=CCC=CCC=CCC=CCCC(=O)NCCP(=O)(O)O [synaptamide phosphonate]
[1]
  recovery of weight loss after SE: facilitates the recovery of weight loss
[2]
  IL-1β-mediated cytokine and chemokine gene induction: dramatic reduction
[3]
  spatial learning in MWM (latency to find the platform): increased average latency to find the platform
